This is an account of results in ChEMBL document CHEMBL1208765, “Structure-activity relationship of lupane-triterpene glycosides from Acanthopanax koreanum on spleen lymphocyte IL-2 and IFN-gamma” (2010).

Common to all, as to assay type: functional
The subject of test [1] is Splenocyte. The experiment in a line: Immunomodulatory effect in mouse splenocyte assessed as increase in ConA-induced IL2 release at 100 uM by lymphoproliferation test.
For test [2], the system named is Splenocyte. The experiment in a line: Immunomodulatory effect in mouse splenocyte assessed as increase in ConA-induced IL2 release at 5 uM by lymphoproliferation test.
In test [3] the test system is Splenocyte. Description: Immunomodulatory effect in mouse splenocyte assessed as increase in ConA-induced IL2 release at 25 uM by lymphoproliferation test.
Test [4] concerns Splenocyte. The experiment in a line: Immunomodulatory effect in mouse splenocyte assessed as increase in ConA-induced IFN-gamma release at 100 uM by lymphoproliferation test.
The test system of test [5] is Splenocyte. The experiment in a line: Immunomodulatory effect in mouse splenocyte assessed as increase in ConA-induced IFN-gamma release at 5 uM by lymphoproliferation test.
The test system of test [6] is Splenocyte. Description: Immunomodulatory effect in mouse splenocyte assessed as increase in ConA-induced IFN-gamma release at 25 uM by lymphoproliferation test.

Take `COC(OC)[C@@H](C)[C@@H]1CC[C@]2(C(=O)O[C@H]3O[C@@H](CO[C@H]4O[C@@H](CO)[C@H](O[C@H]5O[C@@H](C)[C@H](O)[C@@H](O)[C@H]5O)[C@@H](O)[C@@H]4O)[C@H](O)[C@@H](O)[C@@H]3O)CC[C@]3(C)[C@H](CC[C@@H]4[C@@]5(C)CC[C@@H](O)[C@@](C)(C(=O)O)[C@@H]5CC[C@]43C)[C@@H]12` [ACANKOREOSIDE L]: the Activity in the test with Splenocyte [1] amounted to 74.47 pg/mL; in the test on Splenocyte [2], 20.68 pg/mL; with Splenocyte [3], 45.06 pg/mL; in the test on Splenocyte [4], 6.07 pg/mL; in the test on Splenocyte [5] it was 3.53 pg/mL; in the test with Splenocyte [6], 3.71 pg/mL.

With `CC(=O)[C@@H]1CC[C@]2(C(=O)O[C@H]3O[C@@H](CO[C@H]4O[C@@H](CO)[C@H](O[C@H]5O[C@@H](C)[C@H](O)[C@@H](O)[C@H]5O)[C@@H](O)[C@@H]4O)[C@H](O)[C@@H](O)[C@@H]3O)CC[C@]3(C)[C@H](CC[C@@H]4[C@@]5(C)CC[C@@H](O)[C@@](C)(C(=O)O)[C@@H]5CC[C@]43C)[C@@H]12` [ACANKOREOSIDES J], the Activity was 28.27 pg/mL in the test with Splenocyte [1]; 15.78 pg/mL in the test with Splenocyte [2]; 16.14 pg/mL in the test with Splenocyte [3]; 4.36 pg/mL with Splenocyte [4]; 2.75 pg/mL with Splenocyte [5]; 3.78 pg/mL with Splenocyte [6].

For `C=C(CO)[C@@H]1CC[C@]2(C(=O)O[C@H]3O[C@@H](CO[C@H]4O[C@@H](CO)[C@H](O[C@H]5O[C@@H](C)[C@H](O)[C@@H](O)[C@H]5O)[C@@H](O)[C@@H]4O)[C@H](O)[C@@H](O)[C@@H]3O)CC[C@]3(C)[C@H](CC[C@@H]4[C@@]5(C)CC[C@@H](O)[C@@](C)(C(=O)O)[C@@H]5CC[C@]43C)[C@@H]12` [ACANKOREOSIDE F], the Activity came to 27.57 pg/mL in the test with Splenocyte [1]; 16.09 pg/mL in the test with Splenocyte [2]; 23.47 pg/mL in the test on Splenocyte [3]; 4.2 pg/mL in the test with Splenocyte [4]; 3.3 pg/mL with Splenocyte [5]; 4 pg/mL in the test on Splenocyte [6].

For `C=C(CO)[C@@H]1CC[C@]2(C(=O)O[C@H]3O[C@@H](CO[C@H]4O[C@@H](CO)[C@H](O[C@H]5O[C@@H](C)[C@H](O)[C@@H](O)[C@H]5O)[C@@H](O)[C@@H]4O)[C@H](O)[C@@H](O)[C@@H]3O)CC[C@]3(C)[C@H](C[C@@H](O)[C@@H]4[C@@]5(C)CC[C@@H](O)[C@@](C)(C=O)[C@@H]5CC[C@]43C)[C@@H]12` [ACANKOREOSIDE I], the Activity in the test on Splenocyte [1] stood at 14.76 pg/mL; in the test with Splenocyte [2], 10.07 pg/mL; in the test on Splenocyte [3] it was 12.91 pg/mL; in the test on Splenocyte [4], 2.59 pg/mL; in the test with Splenocyte [5] it was 1.25 pg/mL; in the test on Splenocyte [6], 4.18 pg/mL.

Take `C[C@@H]1O[C@H](O[C@@H]2[C@@H](O)[C@H](O)[C@@H](OC[C@@H]3O[C@H](OC(=O)[C@]45CC[C@@H]([C@](C)(O)CO)[C@@H]4[C@H]4CC[C@@H]6[C@@]7(C)CC[C@@H](O)[C@@](C)(C(=O)O)[C@@H]7CC[C@@]6(C)[C@]4(C)CC5)[C@@H](O)[C@H](O)[C@H]3O)O[C@H]2CO)[C@H](O)[C@H](O)[C@H]1O` [ACANKOREOSIDE K]: the Activity with Splenocyte [1] came to 21.57 pg/mL; with Splenocyte [2], 16.69 pg/mL; with Splenocyte [3], 20.24 pg/mL; with Splenocyte [4], 3.66 pg/mL; in the test with Splenocyte [5], 2.78 pg/mL; in the test with Splenocyte [6] it was 3.2 pg/mL.

Regarding `C=C(C)[C@@H]1CC[C@]2(C(=O)O[C@@H]3O[C@H](CO[C@@H]4O[C@H](CO)[C@@H](O[C@H]5O[C@@H](C)[C@H](O)[C@@H](O)[C@H]5O)[C@H](O)[C@H]4O)[C@@H](O)[C@H](O)[C@H]3O)CC[C@]3(C)[C@H](C[C@@H](O)[C@@H]4[C@@]5(C)CC[C@@H](O)[C@@](C)(C=O)[C@@H]5CC[C@]43C)[C@@H]12` [ACANKOREOSIDE D], the Activity in the test on Splenocyte [1] came out at 41.34 pg/mL; in the test with Splenocyte [2], 19.26 pg/mL; with Splenocyte [3] it was 25.32 pg/mL; in the test with Splenocyte [4] it was 5.29 pg/mL; in the test with Splenocyte [5] it was 3.69 pg/mL; in the test on Splenocyte [6], 4.62 pg/mL.

Regarding `C=C(CO)[C@@H]1CC[C@]2(C(=O)O[C@H]3O[C@@H](CO[C@H]4O[C@@H](CO)[C@H](O[C@H]5O[C@@H](C)[C@H](O)[C@@H](O)[C@H]5O)[C@@H](O)[C@@H]4O)[C@H](O)[C@@H](O)[C@@H]3O)CC[C@]3(C)[C@H](C[C@@H](O)[C@@H]4[C@@]5(C)CC[C@@H](O)[C@@](C)(C(=O)O)[C@@H]5CC[C@]43C)[C@@H]12` [ACANKOREOSIDE M], the Activity with Splenocyte [1] was found to be 17.26 pg/mL; in the test with Splenocyte [2], 15.27 pg/mL; in the test with Splenocyte [3] it was 16.92 pg/mL; in the test with Splenocyte [4], 2.48 pg/mL; with Splenocyte [5] it was 1.57 pg/mL; in the test on Splenocyte [6], 2.45 pg/mL.

On to `CC(C)[C@]1(O)CC[C@]2(C(=O)O[C@H]3O[C@@H](CO[C@H]4O[C@@H](CO)[C@H](O[C@H]5O[C@@H](C)[C@H](O)[C@@H](O)[C@H]5O)[C@@H](O)[C@@H]4O)[C@H](O)[C@@H](O)[C@@H]3O)CC[C@]3(C)[C@H](CC[C@@H]4[C@@]5(C)CC[C@@H](O)[C@@](C)(C(=O)O)[C@@H]5CC[C@]43C)[C@H]21` [ACANKOREOSIDE O], for which the Activity with Splenocyte [1] is 16.3 pg/mL; in the test on Splenocyte [2] it was 13.89 pg/mL; in the test with Splenocyte [3], 11.82 pg/mL; with Splenocyte [4] it was 2.44 pg/mL; with Splenocyte [5], 1.81 pg/mL; with Splenocyte [6] it was 1.68 pg/mL.

Consider `C=C(C)[C@@H]1CC[C@]2(C(=O)O[C@@H]3O[C@H](CO[C@@H]4O[C@H](CO)[C@@H](O[C@@H]5O[C@@H](C)[C@H](O)[C@@H](O)[C@H]5O)[C@H](O)[C@H]4O)[C@@H](O)[C@H](O)[C@H]3O)CC[C@]3(C)[C@H](CC[C@@H]4[C@@]5(C)CC[C@@H](O)[C@@](C)(C(=O)O)[C@@H]5CC[C@]43C)[C@@H]12` [ACANKOREOSIDE A], for which the Activity is 29.78 pg/mL with Splenocyte [1]; 17.04 pg/mL in the test on Splenocyte [2]; 24.87 pg/mL in the test with Splenocyte [3]; 4.57 pg/mL in the test with Splenocyte [4]; 2.89 pg/mL in the test on Splenocyte [5]; 4.62 pg/mL with Splenocyte [6].

As for `C=C(C)[C@@H]1CC[C@]2(C(=O)O[C@@H]3O[C@H](CO[C@@H]4O[C@H](CO)[C@@H](O[C@H]5O[C@@H](C)[C@H](O)[C@@H](O)[C@H]5O)[C@H](O)[C@H]4O)[C@@H](O)[C@H](O)[C@H]3O)CC[C@]3(C)[C@H](C[C@@H](O)[C@@H]4[C@@]5(C)CC[C@@H](O)C(C)(C)[C@@H]5CC[C@]43C)C12` (stereo partly specified) [ACANTRIFOSIDE A], the Activity is 50.66 pg/mL with Splenocyte [1]; 20.07 pg/mL in the test with Splenocyte [2]; 25.57 pg/mL with Splenocyte [3]; 5.41 pg/mL in the test on Splenocyte [4]; 4.55 pg/mL in the test with Splenocyte [5]; 5.23 pg/mL in the test with Splenocyte [6].

Consider `C=C(CO)[C@@H]1CC[C@]2(C(=O)O[C@H]3O[C@@H](CO[C@H]4O[C@@H](CO)[C@H](O[C@H]5O[C@@H](C)[C@H](O)[C@@H](O)[C@H]5O)[C@@H](O)[C@@H]4O)[C@H](O)[C@@H](O)[C@@H]3O)CC[C@]3(C)[C@H](C[C@@H](O)[C@@H]4[C@@]5(C)CC[C@@H](O[C@@H]6O[C@H](CO)[C@@H](O)[C@H](O)[C@H]6O)C(C)(C)[C@@H]5CC[C@]43C)[C@@H]12` [ACANKOREOSIDE N], for which the Activity in the test with Splenocyte [1] worked out at 19.06 pg/mL; with Splenocyte [2], 17.11 pg/mL; in the test on Splenocyte [3], 13.66 pg/mL; in the test with Splenocyte [4] it was 1.92 pg/mL; in the test with Splenocyte [5], 1.5 pg/mL; in the test with Splenocyte [6] it was 1.55 pg/mL.
